Target: T1, Human GLP-1 receptor stably expressing cells (hGLP-1R/CHO-K1 cells) (Homo sapiens, UniProt P43220)
T1 construct: expressed in transfected cells
Assay: Measurement of GLP-1 receptor agonist activity (cAMP assay)
Type: cell-based
Conditions: for Emax: CHO-K1, maximum effect, cAMP with 2 nM human GLP-1 (7-36) = 100%, DMSO only = 0%, read-out: Emax; for EC50: increase in cAMP concentration in hGLP-1R/CHO-K1 cells, 37° C. 1 hour
Procedure, shortened: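 hGLP-1R/CHO-K1 cells (cryopreserved) incubated with compound and forskolin in HBSS with 0.1% BSA, IBMX and RO20-1724, 1 h at 37° C; cAMP read by HTRF. EC50 and Emax from cAMP rise, normalised to 2 nM human GLP-1 (7-36) (100%) and DMSO (0%).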

T1 sequence (P43220 24-463): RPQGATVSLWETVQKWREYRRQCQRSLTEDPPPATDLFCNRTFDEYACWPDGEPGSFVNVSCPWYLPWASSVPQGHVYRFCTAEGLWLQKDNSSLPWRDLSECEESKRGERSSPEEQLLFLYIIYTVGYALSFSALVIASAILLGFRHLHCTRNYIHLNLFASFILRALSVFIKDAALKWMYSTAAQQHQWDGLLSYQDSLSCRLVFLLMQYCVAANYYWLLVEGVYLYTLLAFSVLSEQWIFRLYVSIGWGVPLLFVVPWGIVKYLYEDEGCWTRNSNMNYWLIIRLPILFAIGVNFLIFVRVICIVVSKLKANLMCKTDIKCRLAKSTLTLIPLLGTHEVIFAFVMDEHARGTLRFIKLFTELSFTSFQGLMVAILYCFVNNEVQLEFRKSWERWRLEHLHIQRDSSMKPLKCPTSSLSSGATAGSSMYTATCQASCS

For `COc1cc(C(=O)O)cc2c1nc(CN1CCc3cc(C(F)F)c(OCc4ccccc4Cl)nc3[C@@H]1C)n2C[C@@H]1CCO1` [Compound I-130], the Emax was 141% and the EC50 was 0.108 nM.
`COc1cc(C(=O)O)cc2c1nc(CN1CCc3cc(C(F)F)c(OCc4ccc(F)cc4F)nc3[C@@H]1C)n2C[C@@H]1CCO1` [Compound I-131] was tested, and the Emax was 123% and the EC50 was 0.0299 nM.
Compound `COc1cc(C(=O)O)cc2c1nc(CN1CCc3cc(C(F)F)c(OCc4ccc(Cl)cc4Cl)nc3[C@@H]1C)n2C[C@@H]1CCO1` [Compound I-132] has an Emax of 127% and an EC50 of 0.0162 nM.
With `COc1cc(C(=O)O)cc2c1nc(CN1CCc3cc(C(F)F)c(OCc4ccc(Cl)cn4)nc3[C@@H]1C)n2C[C@@H]1CCO1` [Compound I-133] the Emax was 122% and the EC50 was 0.0591 nM.
`COc1cc(C(=O)O)cc2c1nc(CN1CCc3cc(C(F)F)c(OCc4c(F)cc(Cl)cc4F)nc3[C@@H]1C)n2C[C@@H]1CCO1` [Compound I-134] showed an Emax of 128% and an EC50 of 0.0104 nM.
In the case of `COc1cc(C(=O)O)cc2c1nc(CN1CCc3cc(C(F)F)c(OCc4ccc(C#N)cc4F)nc3[C@@H]1C)n2C[C@@H]1CCO1` [Compound I-135], the Emax is reported as 134% and the EC50 is reported as 0.0165 nM.
`C[C@H]1c2nc(OCc3ccc(Cl)cc3F)c(C#N)cc2CCN1Cc1nc2ccc(C(=O)O)cc2n1C[C@@H]1CCO1` [Compound I-136] was tested, and the Emax was 106% and the EC50 was 0.339 nM.
In the case of `C[C@H]1c2nc(OCc3ccc(Cl)cc3F)c(C#N)cc2CCN1Cc1nc2ccc(C(=O)O)c(F)c2n1C[C@@H]1CCO1` [Compound I-137], the Emax is reported as 136% and the EC50 is reported as 0.224 nM.
`C[C@H]1c2nc(OCc3ccc(Cl)cc3F)c(C#N)cc2CCN1Cc1nc2c(F)cc(C(=O)O)cc2n1C[C@@H]1CCO1` [Compound I-138] showed an Emax of 128% and an EC50 of 0.119 nM.
With `COc1cc(C(=O)O)cc2c1nc(CN1CCc3cc(C#N)c(OCc4ccc(Cl)cc4F)nc3[C@@H]1C)n2C[C@@H]1CCO1` [Compound I-139] the Emax was 118% and the EC50 was 0.0326 nM.
With `C[C@H]1c2nc(OCc3cnn(C)n3)c(C(F)(F)F)cc2CCN1Cc1nc2ccc(C(=O)O)cc2n1C[C@@H]1CCO1` [Compound I-142] the Emax was 117% and the EC50 was 7.33 nM.
`C[C@H]1c2nc(OCc3ccc(C#N)c4ccoc34)c(C(F)(F)F)cc2CCN1Cc1nc2ccc(C(=O)O)cc2n1C[C@@H]1CCO1` [Compound I-143] showed an Emax of 129% and an EC50 of 0.0999 nM.
`COc1cc(C(=O)O)cc2c1nc(CN1CCc3cc(C#N)c(OCc4ccc(Cl)cc4)nc3[C@@H]1C)n2C[C@@H]1CCO1` [Compound I-144] showed an Emax of 124% and an EC50 of 0.0625 nM.
Work on `COc1cc(C(=O)O)cc2c1nc(CN1CCc3cc(C#N)c(OCc4ccccc4Cl)nc3[C@@H]1C)n2C[C@@H]1CCO1` [Compound I-145] yielded an Emax of 109% and an EC50 of 0.121 nM.
Compound `COc1cc(C(=O)O)cc2c1nc(CN1CCc3cc(C#N)c(OCc4cc(F)c(Cl)cc4F)nc3[C@@H]1C)n2C[C@@H]1CCO1` [Compound I-146] has an Emax of 115% and an EC50 of 0.0293 nM.
`COc1cc(C(=O)O)cc2c1nc(CN1CCc3cc(C#N)c(OCc4ccc(Cl)cn4)nc3[C@@H]1C)n2C[C@@H]1CCO1` [Compound I-147] gave an Emax of 128% and an EC50 of 0.162 nM.
`C[C@H]1c2nc(OCc3cc(Cl)cs3)c(C(F)(F)F)cc2CCN1Cc1nc2ccc(C(=O)O)cc2n1C[C@@H]1CCO1` [Compound I-148] gave an Emax of 99.3% and an EC50 of 0.89 nM.
`C[C@H]1c2nc(OCc3nc(Cl)cs3)c(C(F)(F)F)cc2CCN1Cc1nc2ccc(C(=O)O)cc2n1C[C@@H]1CCO1` [Compound I-149] showed an Emax of 97.7% and an EC50 of 1.09 nM.
`COc1cc(C(=O)O)cc2c1nc(CN1CCc3cc(C(F)(F)F)c(NCc4ccc(Cl)cc4F)nc3[C@@H]1C)n2C[C@@H]1CCO1` [Compound I-150] gave an Emax of 105% and an EC50 of 0.0391 nM.
`C[C@H]1c2nc(NCc3ccc(Cl)cc3F)c(C(F)(F)F)cc2CCN1Cc1nc2c(Cl)cc(C(=O)O)cc2n1C[C@@H]1CCO1` [Compound I-151] gave an Emax of 92.7% and an EC50 of 0.0738 nM.
`C[C@H]1c2nc(NCc3ccc(Cl)cc3F)c(C(F)(F)F)cc2CCN1Cc1nc2c(F)cc(C(=O)O)cc2n1C[C@@H]1CCO1` [Compound I-152] gave an Emax of 105% and an EC50 of 0.0992 nM.
Work on `C[C@H]1c2nc(NCc3ccc(Cl)cc3F)c(C(F)(F)F)cc2CCN1Cc1nc2ccc(C(=O)O)c(F)c2n1C[C@@H]1CCO1` [Compound I-153] yielded an Emax of 112% and an EC50 of 0.19 nM.
Work on `C[C@H]1c2nc(OCc3cc(Cl)n(C)n3)c(C(F)(F)F)cc2CCN1Cc1nc2ccc(C(=O)O)cc2n1C[C@@H]1CCO1` [Compound I-154] yielded an Emax of 101% and an EC50 of 7.04 nM.
Compound `COc1cc(C(=O)O)cc2c1nc(CN1CCc3cc(C(F)(F)F)c(OCc4cc(Cl)n(C)n4)nc3[C@@H]1C)n2C[C@@H]1CCO1` [Compound I-155] has an Emax of 96.3% and an EC50 of 0.87 nM.
`C[C@H]1c2c(cc(C(F)(F)F)c3c2O[C@@](C)(c2ccc(Cl)cn2)O3)CCN1Cc1nc2c(F)cc(C(=O)O)cc2n1C[C@@H]1CCO1` [Compound I-156] gave an Emax of 101% and an EC50 of 0.671 nM.
`C[C@H]1c2c(cc(C(F)(F)F)c3c2O[C@@](C)(c2ccc(Cl)cn2)O3)CCN1Cc1nc2c(Cl)cc(C(=O)O)cc2n1C[C@@H]1CCO1` [Compound I-158] gave an Emax of 111% and an EC50 of 0.493 nM.
`COc1cc(C(=O)O)cc2c1nc(CN1CCc3cc(C(F)(F)F)c4c(c3[C@@H]1C)O[C@@](C)(c1ccc(Cl)cn1)O4)n2C[C@@H]1CCO1` [Compound I-159] showed an Emax of 99.3% and an EC50 of 0.155 nM.
Work on `Cc1nc(COc2nc3c(cc2C(F)(F)F)CCN(Cc2nc4ccc(C(=O)O)cc4n2C[C@@H]2CCO2)[C@H]3C)no1` [Compound I-160] yielded an Emax of 66.3% and an EC50 of 83.5 nM.
For `Cc1nonc1COc1nc2c(cc1C(F)(F)F)CCN(Cc1nc3ccc(C(=O)O)cc3n1C[C@@H]1CCO1)[C@H]2C` [Compound I-161], the Emax was 73% and the EC50 was 28.2 nM.
In the case of `Cc1noc(COc2nc3c(cc2C(F)(F)F)CCN(Cc2nc4ccc(C(=O)O)cc4n2C[C@@H]2CCO2)[C@H]3C)n1` [Compound I-162], the Emax is reported as 88% and the EC50 is reported as 26 nM.
For `C[C@H]1c2nc(OCc3nc4ccccn4n3)c(C(F)(F)F)cc2CCN1Cc1nc2ccc(C(=O)O)cc2n1C[C@@H]1CCO1` [Compound I-163], the Emax was 83.3% and the EC50 was 32.3 nM.
Compound `C[C@H]1c2c(cc(C(F)(F)F)c3c2O[C@@](C)(c2ccc(Cl)cc2F)O3)CCN1Cc1nc2c(F)cc(C(=O)O)cc2n1C[C@@H]1CCO1` [Compound I-164] has an Emax of 108% and an EC50 of 1.63 nM.
`C[C@H]1c2nc(OCc3ccc(C#N)c4occc34)c(C(F)(F)F)cc2CCN1Cc1nc2ccc(C(=O)O)cc2n1C[C@@H]1CCO1` [Compound I-165] was tested, and the Emax was 111% and the EC50 was 0.965 nM.
In the case of `C[C@H]1c2nc(NCc3ccc(Cl)cc3Cl)c(C(F)(F)F)cc2CCN1Cc1nc2c(F)cc(C(=O)O)cc2n1C[C@@H]1CCO1` [Compound I-166], the Emax is reported as 109% and the EC50 is reported as 0.205 nM.
With `COc1cc(C(=O)O)cc2c1nc(CN1CCc3cc(C(F)(F)F)c(NCc4ccc(Cl)cc4)nc3[C@@H]1C)n2C[C@@H]1CCO1` [Compound I-167] the Emax was 122% and the EC50 was 0.052 nM.
Work on `C[C@H]1c2nc(NCc3ccc(Cl)cc3)c(C(F)(F)F)cc2CCN1Cc1nc2c(Cl)cc(C(=O)O)cc2n1C[C@@H]1CCO1` [Compound I-168] yielded an Emax of 104% and an EC50 of 0.193 nM.
With `C[C@H]1c2nc(NCc3ccc(Cl)cc3)c(C(F)(F)F)cc2CCN1Cc1nc2c(F)cc(C(=O)O)cc2n1C[C@@H]1CCO1` [Compound I-169] the Emax was 109% and the EC50 was 0.191 nM.
`COc1cc(C(=O)O)cc2c1nc(CN1CCc3cc(C(F)(F)F)c4c(c3[C@@H]1C)O[C@@](C)(c1ccc(Cl)cc1F)O4)n2C[C@@H]1CCO1` [Compound I-170] showed an Emax of 105% and an EC50 of 0.243 nM.
`COc1cc(C(=O)O)cc2c1nc(CN1CCc3cc(C(F)(F)F)c(NCc4c(F)cc(Cl)cc4F)nc3[C@@H]1C)n2C[C@@H]1CCO1` [Compound I-171] gave an Emax of 124% and an EC50 of 0.0152 nM.
In the case of `C[C@H]1c2nc(NCc3c(F)cc(Cl)cc3F)c(C(F)(F)F)cc2CCN1Cc1nc2c(Cl)cc(C(=O)O)cc2n1C[C@@H]1CCO1` [Compound I-172], the Emax is reported as 106% and the EC50 is reported as 0.0353 nM.
`C[C@H]1c2nc(NCc3c(F)cc(Cl)cc3F)c(C(F)(F)F)cc2CCN1Cc1nc2c(F)cc(C(=O)O)cc2n1C[C@@H]1CCO1` [Compound I-173] showed an Emax of 99.7% and an EC50 of 0.0889 nM.
Compound `C[C@H]1c2nc(OCc3ccc(Cl)cc3F)c(C(F)(F)F)nc2CCN1Cc1nc2ccc(C(=O)O)cc2n1C[C@@H]1CCO1` [Compound I-174] has an Emax of 96.3% and an EC50 of 0.174 nM.
In the case of `C[C@H]1c2nc(NCc3cc(F)c(Cl)cc3F)c(C(F)(F)F)cc2CCN1Cc1nc2c(F)cc(C(=O)O)cc2n1C[C@@H]1CCO1` [Compound I-175], the Emax is reported as 107% and the EC50 is reported as 0.0831 nM.
For `C[C@H]1c2nc(NCc3cc(F)c(Cl)cc3F)c(C(F)(F)F)cc2CCN1Cc1nc2c(Cl)cc(C(=O)O)cc2n1C[C@@H]1CCO1` [Compound I-176], the Emax was 112% and the EC50 was 0.0693 nM.
In the case of `COc1cc(C(=O)O)cc2c1nc(CN1CCc3cc(C(F)(F)F)c(NCc4cc(F)c(Cl)cc4F)nc3[C@@H]1C)n2C[C@@H]1CCO1` [Compound I-177], the Emax is reported as 113% and the EC50 is reported as 0.0195 nM.
`C[C@H]1c2nc(OCc3ccc(Cl)cc3F)c(C(F)(F)F)cc2CCN1Cc1nc2c(-c3cnn(C)c3)cc(C(=O)O)cc2n1C[C@@H]1CCO1` [Compound I-178] was tested, and the Emax was 99.7% and the EC50 was 12.4 nM.
`Cc1cc(-c2cc(C(=O)O)cc3c2nc(CN2CCc4cc(C(F)(F)F)c(OCc5ccc(Cl)cc5F)nc4[C@@H]2C)n3C[C@@H]2CCO2)on1` [Compound I-179] showed an Emax of 96.3% and an EC50 of 1.46 nM.
For `C[C@H]1c2nc(OCc3ccc(Cl)c4ccoc34)c(C#N)cc2CCN1Cc1nc2c(Cl)cc(C(=O)O)cc2n1C[C@@H]1CCO1` [Compound I-180], the Emax was 111% and the EC50 was 0.28 nM.
With `C[C@H]1c2nc(OCc3ccccc3Cl)c(C#N)cc2CCN1Cc1nc2c(Cl)cc(C(=O)O)cc2n1C[C@@H]1CCO1` [Compound I-181] the Emax was 120% and the EC50 was 0.531 nM.
